{"source": "patent US20210155644A1", "about": "“CYCLOPENTENYL PURINE DERIVATIVE OR SALT THEREOF” (Fujifilm Corporation, priority 2018, published 2021)", "test_system": "adenovirus type 6 (ADV6)", "assay": "Evaluation of anti-adenovirus activity: CRL-11516 cells infected with ADV6, anti-hexon staining, count of stained cells", "type": "cell-based", "conditions": "CRL-11516 cells infected with ADV6, 48 hours culture, concentration reducing dark brown-stained cells by 50%, read-out: Anti-AdV activity EC50", "description": "A system in which CRL-11516 cells (available from ATCC) were infected with adenovirus type 6 (hereinafter, referred to as ADV6) was constructed, and a test for evaluating the anti-adenovirus activity of the compound according to the embodiment of the present invention and the compound of Comparative Example was carried out using the system. The test for evaluating the anti-adenovirus activity was carried out according to the method described below.\nCRL-11516 cells were added to a 96-well plate at a cell density of 1×10^4 cells/well and cultured at 37° C. for 24 hours. After the culture was completed, the cell culture liquid was removed, and a serial dilution (100 μL) of the compound according to the embodiment of the present invention or the compound of Comparative Example was added. ADV6 (corresponding to 50TCID50) was added thereto, followed by culturing at 37° C. for 48 hours.\nAfter the culture was completed, the infected cells were stained using Adeno-X Rapid Titer Kit (manufactured by Takara Bio Inc.). 100% methanol was added thereto and the cells were fixed at −20° C. for 10 minutes. The plate was washed three times with phosphate buffered saline (hereinafter, referred to as PBS) and then Mouse Anti-Hexon Antibody was added thereto, followed by incubation at 37° C. for 1 hour. After the incubation was completed, the plate was washed three times with PBS, and Rat Anti-Mouse Antibody was added thereto, followed by incubation at 37° C. for 1 hour. After the incubation was completed, a mixed staining solution of Stable Peroxidase Buffer:DAB Substrate=10:1 was added thereto, followed by incubation at room temperature for 10 minutes for staining of the cells.\nThe number of dark brown-stained cells was counted under a microscope, and the concentration of the test drug that reduces the dark brown-stained cells by 50% was defined as EC50. EC50 values were calculated for the triplicate test results, and a mean value and a standard deviation thereof were determined.", "note": "Like-named read-outs stand apart in the source and are kept apart here."}
{"compound": "COC(=O)[C@H](C)NP(=O)(OC[C@@H]1C=C[C@H](n2cnc3c(OC)nc(N)nc32)C1)Oc1ccccc1", "note": "(stereo partly drawn) [Example 2-2-16, Methyl ((((1S,4R)-4-(2-amino-6-methoxy-9H-purin-9-yl)cyclopent-2-en-1-yl)methoxy) (phenoxy)phosphoryl)-L-alaninate]", "values": [{"measurement": "EC50", "result": "10 to 100", "unit": "nM"}]}
{"compound": "CCOc1nc(N)nc2c1ncn2[C@H]1C=C[C@@H](CO[P@](=O)(N[C@@H](C)C(=O)OC(C)C)Oc2ccccc2)C1", "note": "[Example 2-2-17, isopropyl ((R)-(((1S,4R)-4-(2-amino-6-ethoxy-9H-purin-9-yl)cyclopent-2-en-1-yl)methoxy)(phenoxy)phosphoryl)-L-alaninate]", "values": [{"measurement": "EC50", "setting": "Human mastadenovirus C, 48 h", "result": "< 10", "unit": "nM"}]}
{"compound": "CCOc1nc(N)nc2c1ncn2[C@H]1C=C[C@@H](CO[P@@](=O)(N[C@@H](C)C(=O)OC(C)C)Oc2ccccc2)C1", "note": "[Example 2-2-18, Isopropyl ((S)-(((1S,4R)-4-(2-amino-6-ethoxy-9H-purin-9-yl)cyclopent-2-en-1-yl)methoxy) (phenoxy)phosphoryl)-L-alaninate]", "values": [{"measurement": "EC50", "setting": "Human mastadenovirus C, 48 h", "result": "100 to 1000", "unit": "nM"}]}
{"compound": "CC(C)OC(=O)[C@H](C)N[P@@](=O)(OC[C@@H]1C=C[C@H](n2cnc3c(OC(C)C)nc(N)nc32)C1)Oc1ccccc1", "note": "[Example 2-2-19, isopropyl ((R)-(((1S,4R)-4-(2-amino-6-isopropoxy-9H-purin-9-yl)cyclopent-2-en-1-yl)methoxy)(phenoxy)phosphoryl)-L-alaninate]", "values": [{"measurement": "EC50", "setting": "Human mastadenovirus C, 48 h", "result": "10 to 100", "unit": "nM"}]}
{"compound": "CC(C)OC(=O)[C@H](C)N[P@](=O)(OC[C@@H]1C=C[C@H](n2cnc3c(OC(C)C)nc(N)nc32)C1)Oc1ccccc1", "note": "[Example 2-2-20, Isopropyl ((S)-(((1S,4R)-4-(2-amino-6-isopropoxy-9H-purin-9-yl)cyclopent-2-en-1-yl)methoxy) (phenoxy)phosphoryl)-L-alaninate]", "values": [{"measurement": "EC50", "setting": "Human mastadenovirus C, 48 h", "result": "100 to 1000", "unit": "nM"}]}
{"compound": "COCCOc1nc(N)nc2c1ncn2[C@H]1C=C[C@@H](CO[P@](=O)(N[C@@H](C)C(=O)OC(C)C)Oc2ccccc2)C1", "note": "[Example 2-2-21, isopropyl ((R)-(((1S,4R)-4-(2-amino-6-(2-methoxyethoxy)-9H-purin-9-yl)cyclopent-2-en-1-yl)methoxy) (phenoxy)phosphoryl)-L-alaninate]", "values": [{"measurement": "EC50", "setting": "Human mastadenovirus C, 48 h", "result": "10 to 100", "unit": "nM"}]}
{"compound": "CC(C)OC(=O)[C@H](C)N[P@@](=O)(OC[C@@H]1C=C[C@H](n2cnc3c(N(C)C)nc(N)nc32)C1)Oc1ccccc1", "note": "[Example 2-2-25, isopropyl ((R)-(((1S,4R)-4-(2-amino-6-(dimethylamino)-9H-purin-9-yl)cyclopent-2-en-1-yl)methoxy)(phenoxy)phosphoryl)-L-alaninate]", "values": [{"measurement": "EC50", "setting": "Human mastadenovirus C, 48 h", "result": "10 to 100", "unit": "nM"}]}
{"compound": "CC(C)OC(=O)[C@H](C)N[P@](=O)(OC[C@@H]1C=C[C@H](n2cnc3c(N(C)C)nc(N)nc32)C1)Oc1ccccc1", "note": "[Example 2-2-26, Isopropyl ((S)-(((1S,4R)-4-(2-amino-6-(dimethylamino)-9H-purin-9-yl)cyclopent-2-en-1-yl)methoxy) (phenoxy)phosphoryl)-L-alaninate]", "values": [{"measurement": "EC50", "setting": "Human mastadenovirus C, 48 h", "result": "100 to 1000", "unit": "nM"}]}
{"compound": "CNc1nc(N)nc2c1ncn2[C@H]1C=C[C@@H](CO[P@](=O)(N[C@@H](C)C(=O)OC(C)C)Oc2ccccc2)C1", "note": "[Example 2-2-29]", "values": [{"measurement": "EC50", "result": "10 to 100", "unit": "nM"}]}
{"compound": "CC(C)OC(=O)[C@H](C)N[P@@](=O)(OC[C@@H]1C=C[C@H](n2cnc3c(OC4CCC4)nc(N)nc32)C1)Oc1ccccc1", "note": "[Example 2-2-35, isopropyl ((R)-(((1S,4R)-4-(2-amino-6-cyclobutoxy-9H-purin-9-yl)cyclopent-2-en-1-yl)methoxy)(phenoxy)phosphoryl)-L-alaninate]", "values": [{"measurement": "EC50", "setting": "Human mastadenovirus C, 48 h", "result": "10 to 100", "unit": "nM"}]}
{"compound": "CC(C)OC(=O)[C@H](C)N[P@](=O)(OC[C@@H]1C=C[C@H](n2cnc3c(OC4CCC4)nc(N)nc32)C1)Oc1ccccc1", "note": "[Example 2-2-36, Isopropyl ((S)-(((1S,4R)-4-(2-amino-6-cyclobutoxy-9H-purin-9-yl)cyclopent-2-en-1-yl)methoxy)(phenoxy)phosphoryl)-L-alaninate]", "values": [{"measurement": "EC50", "setting": "Human mastadenovirus C, 48 h", "result": "100 to 1000", "unit": "nM"}]}
